# Measurements as given in patent publication US20230348416A1, “GPR52 MODULATOR COMPOUNDS” (Heptares Therapeutics Limited, priority 2020, published 2023).
# Assays:
# human GPR52 = molecular target: T1, human GPR52 (Homo sapiens, UniProt Q9Y2T5); assay: GPR52 Agonist Functional cAMP Assay; type: cell-based; settings: for EC50: HEKf cells infected with human GPR52 BacMam virus, HTRF cAMP, 30 min at 37° C., read-out: PEC50 average (converted)
# T1 construct: expressed in transfected cells; host or cells: HEKf suspension cells infected with BacMam virus
# T1 sequence (Q9Y2T5 whole entry): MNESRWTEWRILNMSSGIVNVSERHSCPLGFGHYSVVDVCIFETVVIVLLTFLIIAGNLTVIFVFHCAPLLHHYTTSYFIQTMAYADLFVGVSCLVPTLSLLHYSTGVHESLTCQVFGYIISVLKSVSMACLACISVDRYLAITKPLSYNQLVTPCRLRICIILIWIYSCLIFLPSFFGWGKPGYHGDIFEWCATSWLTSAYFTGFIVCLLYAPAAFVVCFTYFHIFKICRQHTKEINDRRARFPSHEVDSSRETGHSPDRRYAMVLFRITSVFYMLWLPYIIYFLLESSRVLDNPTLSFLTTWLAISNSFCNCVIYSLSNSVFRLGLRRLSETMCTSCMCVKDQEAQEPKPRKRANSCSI
# Procedure: GPR52 Agonist Functional cAMP Assay
# HEKf suspension cells were infected for 24 h with 0.1% v/v human GPR52 expressing BacMam virus, a modified baculovirus designed for mammalian gene expression. Following BacMam infection, cells were pelleted by centrifugation (335 g, 5 min), resuspended in cell freezing medium (Sigma) and frozen at −150° C. until required. On experiment day, 25 nL GPR52 compound dilutions, prepared in DMSO, were stamped onto proxiplates (PerkinElmer) by a LabCyte ECHO acoustic dispenser. Frozen cells were thawed and resuspended in assay stimulation buffer (Cisbio) containing 0.5 mM 3-iso-butyl-1-methylxanthine (IBMX, Sigma) to achieve a density of 2000 cells per well. 10 μl cells were added to assay plates using a Multidrop Combi Reagent Dispenser (ThermoFisher) before centrifugation (335 g, 1 min). Cells were incubated with compounds at 37° C. for 30 min prior to addition of cAMP detection reagents (HiRange cAMP kit, Cisbio) which were prepared according to the manufacturer's instructions. Plates were shaken for 1 h at room temperature before reading on a PHERAstar FS plate reader (BMG Labtech) using standard HTRF settings. HTRF ratios were obtained by dividing the acceptor emissions (665 nm) by the donor emissions (620 nm) and multiplying by 10,000.
# [1] = test system: caffeine-induced hyperlocomotor activity; assay: Attenuation of caffeine-induced locomotor activity in rat; type: in vivo, male Sprague-Dawley rats; settings: PO 60 min before caffeine 15 mg/kg SC, locomotor activity over 2 h, FIG. 1
# Text: Caffeine, a non-selective adenosine receptor antagonist, is a psychostimulant which increases rodent locomotor activity principally via blockade of A2A receptors (Br. J. Pharmacol., 2000, 129, 1465). These receptors are densely expressed on the terminals of GABAergic striatopallidal neurons in the indirect pathway of the basal ganglia, in which dopamine D2 receptors are co-expressed (J. Comp. Neurol., 1998, 401, 163; J. Comp. Neurol., 2001, 431, 331). Tonic activation of A2A receptors decreases the affinity of D2 receptors to dopamine and antagonism of A2A receptors facilitates dopaminergic signalling (Curr. Pharm. Des., 2008, 14, 1468). […] Male Sprague-Dawley rats (200-250 g) were housed in groups with a 12 h light/dark cycle (lights on at 07.00), at an ambient temperature of 21±2° C. and with standard pelleted diet and water adlibitum. Testing was carried out in the light phase. On the day of the experiment, animals were habituated to the locomotor cages for a 60-minute period. Subsequently, they were dosed with vehicle or Example 2 Isomer 1 (0.1, 0.3, 1 and 3 mg/kg) by the oral route and returned to the appropriate locomotor cage. Example 2 Isomer 1 was formulated in a vehicle of 10% DMAC, 10% solutol (Kolliphor HS15) and 80% water (v/v/v). […] Locomotor activity was assessed for a 2 h period after caffeine treatment. […] SEMs were calculated from the residuals of the statistical model. […]
# [2] = Rat IV brain penetration (unbound brain-to-plasma ratio); type: in vivo, male Sprague-Dawley rats; settings: male, Sprague-Dawley, brain and plasma, 1 mg/kg, 10 min post-dose, n = 3
# Procedure: Plasma and brain exposure were evaluated to assess the brain penetration of Example 2, following IV administration. Unbound brain-to-plasma ratio (Kp,uu) was calculated, as detailed in Table 5, following experimental determination of binding in rat plasma and brain homogenate.
# Methods: For brain penetration assessment, male Sprague-Dawley rats (n=3) were administered a single 1 mg/kg dose (formulated in 10% DMAC+10% Solutol HS15+80% saline) via the IV route. After 10 min post-dose, animals were sacrificed and brains extracted, homogenised with 2 volumes (w/v) of 50 mM sodium phosphate buffer (pH 7.4), and analysed by LC-MS/MS. Blood samples were removed at the same time point via tail vein bleed, centrifuged and the plasma analysed by LC-MS/MS.
# To permit calculation of unbound brain-to-plasma ratio (Kp,uu), test compound binding in rat plasma and brain homogenate was performed, using Rapid Equilibrium Dialysis (RED). Test compound prepared in DMSO (1 μM final, 0.2% DMSO) was added to (i) undiluted male Sprague Dawley rat plasma and (ii) rat brain tissue homogenised with 2 volumes (w/v) of sodium phosphate buffer (pH 7.4), and dialysed against phosphate buffer for 5 h at 37° C. […] Fraction unbound (Fu) in plasma and brain was calculated using the following formula, then used to correct total plasma and brain concentrations to derive the Kp,uu: […]
# [3] = Rat IV and PO pharmacokinetic profiling; type: in vivo, male Sprague-Dawley rats; settings: male, Sprague-Dawley, plasma, n = 3, mean ± standard deviation
# Procedure: The pharmacokinetic profiles of Example 2 were assessed in male Sprague-Dawley rats via intravenous (IV) and oral (per os, PO) routes of delivery. Pharmacokinetic data (mean values±standard deviation) for Example 2 of the invention are detailed in Table 5.
# Methods: For pharmacokinetic analysis, groups of three male Sprague-Dawley rats, ranging in weight between 200 and 230 g, were administered a single dose of Example 2 via IV or PO route, using the doses, dose volumes and vehicles specified in Table 5. Following dosing, blood samples were taken at several time points (pre-dose, 2 min, 5 min, 15 min, 30 min, 1 h, 3 h, 6 h, 12 h and 24 h for IV administration and pre-dose, 5 min, 15 min, 30 min, 1 hr, 2 h, 4 h, 8 h, 12 h and 24 h for PO administration) via serial tail vein bleeds, and centrifuged to separate plasma for analysis by LC-MS/MS. WinNonlin v8.2 statistics software (Pharsight Corporation, California, USA) was used to generate pharmacokinetic parameters using non-compartmental analysis.
# [4] = maximal response normalised to DMSO (0%) and compound 7m of J. Med. Chem., 2014, 57, 5226 (100%)
EC50 (human GPR52) [nM],Emax (%) (human GPR52; [4]),Kp uu at 10 min [2],"clearance ([3]; rat IV, 1 mg/kg) [mL/min/kg]","bioavailability ([3]; rat PO, 3 mg/kg) [%]",Emax (human GPR52; [4]) [%],Structure (SMILES),effect on caffeine-induced hyperlocomotor response [1]
15.8,91,–,–,–,–,"CC(=O)NC1CCCc2c1nnn2-c1cc(Cc2cc(F)cc(C(F)(F)F)c2)ccn1 (single isomer, unassigned) [Example 2 Isomer 1, N-(1-(4-(3-fluoro-5-(trifluoromethyl)benzyl)pyridin-2-yl)-4,5,6,7-tetrahydro-1H-benzo[d][1,2,3]triazol-4-yl)acetamide]","dose-dependent reduction of the caffeine-induced hyperlocomotor response, reaching statistical significance across all time points at 3 and 10 mg/kg"
50.1,–,0.35 ± 0.02,5.5 ± 1,88.2 ± 11.4,86,"CC(=O)NC1CCCc2c1nnn2-c1cc(Cc2cc(F)cc(C(F)(F)F)c2)ccn1 (centres unmarked) [Example 2, N-(1-(4-(3-fluoro-5-(trifluoromethyl)benzyl)pyridin-2-yl)-4,5,6,7-tetrahydro-1H-benzo[d][1,2,3]triazol-4-yl)acetamide]",–
